In ChEMBL document CHEMBL1141310, “Screening of Indonesian medicinal plant extracts for antibabesial activity and isolation of new quassinoids from Brucea javanica” (J Nat Prod, 2007):
In brackets after ≈: the same amount, converted by molar mass.

Tested on: Babesia gibsoni
Test: Antibabesial activity against Babesia gibsoni
Assay type: functional, organism-based

Compound	IC50 [µg/mL]
COC(=O)[C@@]12OC[C@]34[C@H]([C@@H](O)[C@@H]1O)[C@@]1(C)CC(=O)C(O)=C(C)[C@@H]1C[C@H]3OC(=O)[C@H](OC(=O)CC(C)C)[C@@H]24 [BRUCEINE A]	0.004 (≈ 0.00765 µM)
COC(=O)[C@]12OC[C@]34[C@H]([C@@H](O)[C@@H]1O)[C@@]1(C)CC(=O)C(O)=C(C)[C@@H]1C[C@H]3OC(=O)[C@H](OC(=O)/C=C(\C)C(C)(C)OC(C)=O)[C@@H]24 [BRUCEANTINOL]	0.012 (≈ 0.0198 µM)
COC(=O)[C@@]12OC[C@]34[C@H]([C@@H](O)[C@@H]1O)[C@@]1(C)CC(=O)C(O)=C(C)[C@@H]1C[C@H]3OC(=O)[C@H](OC(C)=O)[C@@H]24 [BRUCEINE B]	0.893 (≈ 1.86 µM)
CC(=O)OC(C)(C)/C(C)=C/C(=O)O[C@H]1C(=O)O[C@@H]2C[C@H]3C(C)=C(O)C(=O)C[C@]3(C)[C@H]3[C@@H](O)[C@H](O)[C@@]4(C(=O)O)OC[C@]32[C@@H]14 [BRUCEANTINOL B]	0.978 (≈ 1.65 µM)
COC(=O)[C@]12OC[C@]34[C@H]([C@@H](O)[C@@H]1O)[C@@]1(C)CC(=O)C(O)=C(C)[C@@H]1C[C@H]3OC(=O)[C@H](OC(=O)/C=C(\C)C(C)(C)O)[C@@H]24 [BRUCEINE C]	0.107 (≈ 0.19 µM)
CC1=CC(=O)[C@@H](O)[C@]2(C)[C@H]3[C@@H](O)[C@H](O)[C@]4(C)OC[C@@]35[C@@H](C[C@@H]12)OC(=O)[C@H](O)[C@]54O [BRUCEINE D]	0.835 (≈ 2.03 µM)
CC1=C(O)C(=O)C[C@]2(C)[C@H]3[C@@H](O)[C@H](O)[C@@]4(C(=O)O)OC[C@@]35[C@@H](C[C@@H]12)OC(=O)[C@H](OC(=O)CC(C)C)[C@@H]45 [BRUCEINE J]	0.742 (≈ 1.46 µM)
CC(=O)NCC(=O)O.N=C(N)c1ccc(/N=N/Nc2ccc(C(=N)N)cc2)cc1 [DIMINAZEN ACETURATE]	0.103
CC1=CC(=O)[C@@H](O)[C@]2(C)[C@H]3[C@@H](O)[C@H](O)[C@]4(CO)OC[C@@]35[C@@H](C[C@@H]12)OC(=O)[C@H](O)[C@]54O [YADANZIOLIDE A]	0.216 (≈ 0.507 µM)
